Results from patent publication US8980848B2, “Flavonoid dimers and their use” (The Hong Kong Polytechnic University, priority 2010, dated 2015).

What was measured:
[1] = Tumor cell line cytotoxicity of flavonoid dimers, LCC6MDR; type: cell-based, human; settings: human, LCC6MDR cells, IC50 of compound alone
Method: (§1) (b) Tumor Cell Line Cytotoxicity. The tumor cytotoxicity assays of flavonoid dimers were performed against LCC6, LCC6MDR and L929 cell lines. […] In brief, LCC6, LCC6MDR and L929 cells were seeded into 96-well flat bottom microtiter plate at 1×10^4 cells per well in a final volume of 100 μL media, respectively. A graded dose of flavonoid dimers was added into wells. The plate was incubated at 37° C. for 72 hrs at the atmosphere 5% CO2 in the air. The % of survivors was determined.

[2] = Tumor cell line cytotoxicity of flavonoid dimers, LCC6; type: cell-based, human; settings: human, LCC6 cells, IC50 of compound alone
Method: as §1

[3] = Cytotoxicity of flavonoid dimers, L929 mouse fibroblast; type: cell-based; settings: mouse, L929 fibroblast cells, IC50 of compound alone, 72 hrs, mouse fibroblast
Method: as §1

Pgp (LCC6MDR cells) = Pgp (LCC6MDR cells) (Homo sapiens, UniProt P08183); assay: Cell proliferation assay: Pgp-modulating activity, reversal of anticancer drug resistance in LCC6MDR cells; settings: for RF (Relative Fold), cpd at 0.5 μM: RF = (IC50 without modulator)/(IC50 with 0.5 μM modulator); for RF (Relative Fold), cpd at 0.5 μM / RF (Relative Fold), cpd at 1 μM: paclitaxel; for RF (Relative Fold), cpd at 0.5 μM / RF (Relative Fold), cpd at 1 μM / EC50: LCC6MDR; for RF (Relative Fold), cpd at 1 μM: RF = (IC50 without modulator)/(IC50 with 1.0 μM modulator); for EC50: EC50 of compounds for reversing anticancer drug resistance (nM), Paclitaxel; for Therapeutic index: IC50 of compounds for L929/EC50 of compounds for lowering paclitaxel drug resistance
Sequence of Pgp (LCC6MDR cells) (P08183 whole entry): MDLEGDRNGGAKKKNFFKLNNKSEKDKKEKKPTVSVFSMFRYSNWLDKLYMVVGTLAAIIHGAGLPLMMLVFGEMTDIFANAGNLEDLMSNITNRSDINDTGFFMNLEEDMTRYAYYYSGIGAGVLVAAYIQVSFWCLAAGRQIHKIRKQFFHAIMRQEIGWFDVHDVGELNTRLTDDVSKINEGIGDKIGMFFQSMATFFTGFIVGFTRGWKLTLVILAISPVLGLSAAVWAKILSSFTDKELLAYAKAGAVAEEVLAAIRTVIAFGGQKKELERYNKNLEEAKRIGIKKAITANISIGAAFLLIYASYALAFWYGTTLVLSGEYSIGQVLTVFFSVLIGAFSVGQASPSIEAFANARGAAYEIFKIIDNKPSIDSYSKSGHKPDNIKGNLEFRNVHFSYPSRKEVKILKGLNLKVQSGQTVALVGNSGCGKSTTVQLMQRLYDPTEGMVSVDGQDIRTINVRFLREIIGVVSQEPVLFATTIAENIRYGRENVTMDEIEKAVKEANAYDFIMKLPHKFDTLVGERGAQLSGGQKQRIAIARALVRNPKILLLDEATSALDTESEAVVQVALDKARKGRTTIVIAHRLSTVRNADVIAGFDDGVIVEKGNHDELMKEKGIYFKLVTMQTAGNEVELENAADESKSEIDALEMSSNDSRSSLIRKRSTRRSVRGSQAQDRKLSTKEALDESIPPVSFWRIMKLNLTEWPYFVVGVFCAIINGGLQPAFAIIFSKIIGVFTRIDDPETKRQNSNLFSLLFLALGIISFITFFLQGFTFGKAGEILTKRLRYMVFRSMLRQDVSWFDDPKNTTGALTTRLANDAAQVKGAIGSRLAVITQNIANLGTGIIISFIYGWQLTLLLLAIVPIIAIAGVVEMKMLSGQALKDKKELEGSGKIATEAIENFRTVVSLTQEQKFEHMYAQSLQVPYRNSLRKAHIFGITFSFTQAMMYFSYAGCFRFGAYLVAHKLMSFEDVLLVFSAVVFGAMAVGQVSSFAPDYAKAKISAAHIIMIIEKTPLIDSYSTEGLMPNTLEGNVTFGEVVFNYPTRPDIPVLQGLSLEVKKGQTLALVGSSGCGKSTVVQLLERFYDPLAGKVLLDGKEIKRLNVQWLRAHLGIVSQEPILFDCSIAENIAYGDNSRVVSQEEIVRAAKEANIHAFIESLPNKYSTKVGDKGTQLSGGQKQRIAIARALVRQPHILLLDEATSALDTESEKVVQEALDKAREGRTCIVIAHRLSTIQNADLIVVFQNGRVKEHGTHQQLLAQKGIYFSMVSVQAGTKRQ
Method: Cell Proliferation Assay. 6,000 cells of LCC6 or LCC6MDR and anticancer drugs (paclitaxel, vinblastine, vincristine, doxorubicin and mitoxantrone) were mixed with or without modulators to a final volume of 200 μL in each well of 96-well plates. […] The plates were then incubated for 5 days at 37° C. […] IC50 values were calculated from the dose-response curves of MTS assays (Prism 4.0).

Row | Structure (SMILES) | IC50 at 72 h [1] [µM] | IC50 at 72 h [2] [µM] | IC50 at 72 h [3] [µM] | RF (Relative Fold), cpd at 0.5 μM (Pgp (LCC6MDR cells)) | RF (Relative Fold), cpd at 1 μM (Pgp (LCC6MDR cells)) | EC50 (Pgp (LCC6MDR cells)) [nM] | Therapeutic index (Pgp (LCC6MDR cells))
1 | COc1cc(CN(CCOCCOc2ccc(-c3cc(=O)c4ccccc4o3)cc2)CCOCCOc2ccc(-c3cc(=O)c4ccccc4o3)cc2)cc(OC)c1 [Compound 44, 1,13-Bis[4′-(4H-chromen-4-on-2-yl)phenyl]-7-(3,5-dimethoxybenzyl)-1,4,10,13-tetraoxa-7-azamidecane] | > 100 | > 100 | > 100 | (19.1) | (51.0) | – | –
2 | Cc1cccc(CN(CCOCCOc2ccc(-c3cc(=O)c4ccccc4o3)cc2)CCOCCOc2ccc(-c3cc(=O)c4ccccc4o3)cc2)c1 [Compound 45, 1,13-Bis[4′-(4H-chromen-4-on-2-yl)phenyl]-7-(3-methylbenzyl)-1,4,10,13-tetraoxa-7-azamidecane] | > 66 | 57.7 ± 5.9 | 55 ± 4.4 | (32.6) | (102.1) | – | –
3 | Cc1ccccc1CN(CCOCCOc1ccc(-c2cc(=O)c3ccccc3o2)cc1)CCOCCOc1ccc(-c2cc(=O)c3ccccc3o2)cc1 [Compound 46, 1,13-Bis[4′-(4H-chromen-4-on-2-yl)phenyl]-7-(2-methylbenzyl)-1,4,10,13-tetraoxa-7-azamidecane] | > 100 | > 100 | > 100 | (32.6) | (117.8) | – | –
4 | Cc1ccc(CN(CCOCCOc2ccc(-c3cc(=O)c4ccccc4o3)cc2)CCOCCOc2ccc(-c3cc(=O)c4ccccc4o3)cc2)cc1 [Compound 47, 1,13-Bis[4′-(4H-chromen-4-on-2-yl)phenyl]-7-(4-methylbenzyl)-1,4,10,13-tetraoxa-7-azamidecane] | > 81 | > 100 | 66.4 ± 16.8 | (31.2) | (109.4) | – | –
5 | O=c1cc(-c2ccc(OCCOCCN(CCOCCOc3ccc(-c4cc(=O)c5ccccc5o4)cc3)Cc3cccc(Cl)c3)cc2)oc2ccccc12 [Compound 48, 1,13-Bis[4′-(4H-chromen-4-on-2-yl)phenyl]-7-(3-chlorobenzyl)-1,4,10,13-tetraoxa-7-azamidecane] | > 98 | > 100 | > 100 | (19.6) | (80.6) | – | –
6 | O=c1cc(-c2ccc(OCCOCCN(CCOCCOc3ccc(-c4cc(=O)c5ccccc5o4)cc3)Cc3ccccc3Cl)cc2)oc2ccccc12 [Compound 50, 1,13-Bis[4′-(4H-chromen-4-on-2-yl)phenyl]-7-(2-chlorobenzyl)-1,4,10,13-tetraoxa-7-azamidecane] | > 100 | > 100 | > 100 | (11.9) | (95.7) | – | –
7 | N#Cc1ccc(CN(CCOCCOc2ccc(-c3cc(=O)c4ccccc4o3)cc2)CCOCCOc2ccc(-c3cc(=O)c4ccccc4o3)cc2)cc1 [Compound 51, 1,13-Bis[4′-(4H-chromen-4-on-2-yl)phenyl]-7-(4-cyanobenzyl)-1,4,10,13-tetraoxa-7-azamidecane] | > 100 | > 100 | 25.2 ± 12.4 | (2.6) | (5.9) | – | –
8 | C=Cc1ccc(CN(CCOCCOc2ccc(-c3cc(=O)c4ccccc4o3)cc2)CCOCCOc2ccc(-c3cc(=O)c4ccccc4o3)cc2)cc1 [Compound 52, 1,13-Bis[4′-(4H-chromen-4-on-2-yl)phenyl]-7-(4-vinylbenzyl)-1,4,10,13-tetraoxa-7-azamidecane] | 28.3 ± 8.2 | 21 ± 4.7 | 7.4 ± 1 | (72.9) | (117.8) | – | –
9 | CCc1ccc(CN(CCOCCOc2ccc(-c3cc(=O)c4ccccc4o3)cc2)CCOCCOc2ccc(-c3cc(=O)c4ccccc4o3)cc2)cc1 [Compound 53, 1,13-Bis[4′-(4H-chromen-4-on-2-yl)phenyl]-7-(4-ethylbenzyl)-1,4,10,13-tetraoxa-7-azamidecane] | > 100 | > 100 | 25.4 ± 8.1 | (23.9) | (69.6) | – | –
10 | CC(C)(C)OC(=O)Nc1ccc(CN(CCOCCOc2ccc(-c3cc(=O)c4ccccc4o3)cc2)CCOCCOc2ccc(-c3cc(=O)c4ccccc4o3)cc2)cc1 [Compound 54, 1,13-Bis[4′-(4H-chromen-4-on-2-yl)phenyl]-7-(4-tert-butyloxycarbonylanimobenzyl)-1,4,10,13-tetraoxa-7-azamidecane] | > 50 | > 50 | > 50 | (45.0) | (95.7) | 188 | 266.0
11 | Nc1ccc(CN(CCOCCOc2ccc(-c3cc(=O)c4ccccc4o3)cc2)CCOCCOc2ccc(-c3cc(=O)c4ccccc4o3)cc2)cc1 [Compound 55, 1,13-Bis[4′-(4H-chromen-4-on-2-yl)phenyl]-7-(4-aminobenzyl)-1,4,10,13-tetraoxa-7-azamidecane] | > 50 | > 50 | > 50 | (8.8) | (72.9) | 244 | 204.9
12 | O=c1cc(-c2ccc(OCCOCCN(CCOCCOc3ccc(-c4cc(=O)c5ccccc5o4)cc3)Cc3cccc(-c4ccccc4)c3)cc2)oc2ccccc12 [Compound 56, 1,13-Bis[4′-(4H-chromen-4-on-2-yl)phenyl]-7-(3-phenylbenzyl)-1,4,10,13-tetraoxa-7-azamidecane] | > 100 | > 100 | > 100 | (2.7) | (38.5) | – | –
13 | O=c1cc(-c2ccc(OCCOCCN(CCOCCOc3ccc(-c4cc(=O)c5ccccc5o4)cc3)Cc3ccc4ccccc4c3)cc2)oc2ccccc12 [Compound 58, 1,13-Bis[4′-(4H-chromen-4-on-2-yl)phenyl]-7-(2-naphthalenylmethyl)-1,4,10,13-tetraoxa-7-azamidecane] | 8.9 ± 3.3 | 4.8 ± 0.4 | 5.1 ± 0.3 | (95.7) | (117.8) | 92 ± 11 | 55.4
14 | O=c1cc(-c2ccc(OCCOCCN(CCOCCOc3ccc(-c4cc(=O)c5ccccc5o4)cc3)Cc3nc4ccccc4[nH]3)cc2)oc2ccccc12 [Compound 60, 1,13-Bis[4′-(4H-chromen-4-on-2-yl)phenyl]-7-(2-benzimidazolylmethyl)-1,4,10,13-tetraoxa-7-azamidecane] | > 100 | > 100 | > 70 | (21.9) | (117.8) | – | –
15 | O=c1cc(-c2ccc(OCCOCCN(CCOCCOc3ccc(-c4cc(=O)c5ccccc5o4)cc3)CC3CCCCC3)cc2)oc2ccccc12 [Compound 62, 1,13-Bis[4′-(4H-chromen-4-on-2-yl)phenyl]-7-(cyclohexanylmethyl)-1,4,10,13-tetraoxa-7-azamidecane] | 7.9 ± 2.7 | 10 ± 4.7 | 18.9 ± 2.3 | (56.7) | (117.8) | 132 ± 7 | 143.2
16 | O=c1cc(-c2ccc(OCCOCCN(CCOCCOc3ccc(-c4cc(=O)c5ccccc5o4)cc3)Cc3cccnc3)cc2)oc2ccccc12 [Compound 64a, 1,13-Bis[4′-(4H-chromen-4-on-2-yl)phenyl]-7-(3-pyridylmethyl)-1,4,10,13-tetraoxa-7-azamidecane] | 4.7 ± 0.2 | 5.7 ± 1.4 | 2.3 ± 0.2 | (8.5) | (46.4) | – | –
17 | O=c1cc(-c2ccc(OCCOCCN(CCOCCOc3ccc(-c4cc(=O)c5ccccc5o4)cc3)Cc3ccnc(Br)c3)cc2)oc2ccccc12 [Compound 64b, 1,13-Bis[4′-(4H-chromen-4-on-2-yl)phenyl]-7-(4-(2-bromopyridyl)methyl)-1,4,10,13-tetraoxa-7-azamidecane] | > 100 | > 100 | > 100 | (8.4) | (76.6) | – | –
18 | N#Cc1cc(CN(CCOCCOc2ccc(-c3cc(=O)c4ccccc4o3)cc2)CCOCCOc2ccc(-c3cc(=O)c4ccccc4o3)cc2)ccn1 [Compound 64c, 1,13-Bis[4′-(4H-chromen-4-on-2-yl)phenyl]-7-(4-(2-cyanopyridyl)methyl)-1,4,10,13-tetraoxa-7-azamidecane] | > 100 | > 100 | > 50 | (19.4) | (66.6) | – | –
19 | O=c1cc(-c2ccc(OCCOCCN(CCOCCOc3ccc(-c4cc(=O)c5ccccc5o4)cc3)Cc3ccncc3Br)cc2)oc2ccccc12 [Compound 64d, 1,13-Bis[4′-(4H-chromen-4-on-2-yl)phenyl]-7-(4-(3-bromopyridyl)methyl)-1,4,10,13-tetraoxa-7-azamidecane] | > 100 | > 100 | > 50 | (10.6) | (61.2) | – | –
